The values that follow come from patent publication US5288624A, “Cercosporal fungicide compositions and methods of use” (priority 1987, dated 1994).

One assay concerns Staphylococcus aureus. The note with it: Matsueda et al.; cited from earlier work.
The test system of another assay is Bacillus subtilis. Conditions: Matsueda et al.; cited from earlier work.
A further assay relates to Pseudomonas aeruginosa. Conditions: Matsueda et al.; cited from earlier work.
A further assay deals with E. coli. The note with it: Matsueda et al.; cited from earlier work.
The test system of a further assay is Candida japonica. The note with it: Matsueda et al.; cited from earlier work.
The test system of another assay is certain microorganisms. The note with it: Matsueda et al. 1980; cited from earlier work.
In the next assay the test system is Botrytis. Briefly: Combination with herbicides, Botrytis agar plate test. The note with it: herbicide applied singly. The assay is classed as cell-based, Botrytis cinerea.
The test system of the next assay is Microsporum canis. Description: Effect of the fungicide on dermatophytes (agar incorporation). The assay is classed as cell-based. Conditions: 120 h, pH 7.1, 25°, 5 days, read-out: Minimum Inhibitory Concentration, MIC. Here is the method: (§1) These were recent clinical isolates and were cultivated at 25° C. on agar containing the following ingredients in grams per liter:
(§2) Mycelia from the 3 fungi were disintegrated with sterile glass beads in sterile water and 1 drop applied to the center petri dishes containing the same agar as above but to which was added Phaeoramularia fungicide. The fungicide was added at a concentration of from 0.5 μg/ml to 5 μg/ml of the eluate described under "Extraction of the active principle." Griseofulvin was used in comparison. Controls were prepared with the same agar but devoid of fungicide. Five (5) replicates were made for each test.

The subject of a further assay is T. mentagrophytes. The assay is described as above. The assay is classed as cell-based. Conditions: Trichophyton mentagrophytes, 120 h, pH 7.1, 25°, 5 days, read-out: Minimum Inhibitory Concentration, MIC. Here is the method: as §1, §2
The test system of another assay is Trichophyton rubrum. Described as above. In kind it is cell-based. Conditions: 120 h, pH 7.1, 25°, 5 days, read-out: Minimum Inhibitory Concentration, MIC. Here is the method:
as §1, §2

Values after ≈ are worked out from the molar mass of the structure shown.

Take `COc1c(CC(C)O)c2c3c(CC(C)O)c(OC)c(=O)c4c(O)cc5c(c6c(cc(O)c(c1=O)c62)OCO5)c43` (stereo not drawn) [cercosporin]: the inhibition of growth entry in the assay with Staphylococcus aureus, in the assay on Bacillus subtilis, with Pseudomonas aeruginosa, in the assay on E. coli and in the assay with Candida japonica was “inhibit the growth” each time. In addition, in the assay with certain microorganisms, the “inhibitory effect on certain microorganisms” value is given as “inhibitory effect”.
Regarding `COc1nc(C)nc(NC(=O)NS(=O)(=O)c2ccccc2Cl)n1` [Chlorsulfuron], in the assay on Botrytis, the “effect of herbicide on Botrytis” value was “no effect”.
Regarding `CCNc1nc(Cl)nc(NCC)n1` [Simazine], the “effect of herbicide on Botrytis” value in the assay on Botrytis is given as “no effect”.
As for `COC1=CC(=O)C[C@@H](C)[C@]12Oc1c(Cl)c(OC)cc(OC)c1C2=O` [griseofulvin], the MIC in the assay on Microsporum canis was found to be 3 µg/mL (≈ 8.5 µM); in the assay with T. mentagrophytes it was 10 µg/mL (≈ 28.3 µM); with Trichophyton rubrum, 1.5 µg/mL (≈ 4.25 µM).
In the case of `CCNc1nc(Cl)nc(NC(C)C)n1` [Atrazine], the “effect of herbicide on Botrytis” value in the assay with Botrytis is “no effect”.
